# pEC50: −log10 of the molar value.
# Target: T1, human GLP-1 receptor (Homo sapiens, UniProt P43220)
# T1 construct: expressed in transfected cells
# Test: GLP-1R cAMP Assay
# Assay type: cell-based
# Conditions: cAMP accumulation in CHO cells stably overexpressing the human GLP-1 receptor; 30 min treatment; HitHunter cAMP kit; read-out: EC50
# Outline: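 Luminescent enzyme-complementation detection of cAMP, read after cell lysis and overnight incubation, with dose-response curve fitting. Stimulation lasted 30 min, using 20-point triplicate dosing on CHO cells (10,000 per well) stably overexpressing human GLP-1R.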
# T1 sequence (P43220 24-463): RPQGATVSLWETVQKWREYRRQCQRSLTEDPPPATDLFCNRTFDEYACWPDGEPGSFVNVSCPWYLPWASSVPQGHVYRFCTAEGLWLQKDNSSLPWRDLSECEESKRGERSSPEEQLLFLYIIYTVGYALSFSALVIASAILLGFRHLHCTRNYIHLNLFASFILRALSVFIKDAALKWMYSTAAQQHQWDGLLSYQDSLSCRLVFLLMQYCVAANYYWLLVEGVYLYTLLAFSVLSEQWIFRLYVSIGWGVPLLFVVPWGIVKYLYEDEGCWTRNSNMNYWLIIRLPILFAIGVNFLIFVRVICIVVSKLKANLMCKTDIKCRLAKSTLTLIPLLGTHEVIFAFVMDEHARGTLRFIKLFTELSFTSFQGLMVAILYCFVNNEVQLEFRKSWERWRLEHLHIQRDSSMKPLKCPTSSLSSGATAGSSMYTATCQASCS
row,pEC50,Structure (SMILES)
1,< 6.30,"COC(=O)c1ccc2nc(CN3CCN(C(=O)c4cccc(Oc5ccc(C)cc5Cl)c4)CC3)n(C[C@@H]3CCO3)c2c1 [Compound 23, methyl 2-({4-[3-(2-chloro-4-methylphenoxy)benzoyl]piperazin-1-yl}methyl)-1-{[(2S)-oxetan-2-yl]methyl}-1H-1,3-benzodiazole-6-carboxylate]"
2,< 6.30,"Cc1ccc(S(=O)(=O)Nc2cccc(C(=O)N3CCN(Cc4nc5ccc(C(=O)O)cc5n4C[C@@H]4CCO4)CC3)c2)cc1 [Compound 70, 2-({4-[3-(4-methylbenzenesulfonamido)benzoyl]piperazin-1-yl}methyl)-1-{[(2S)-oxetan-2-yl]methyl}-1H-1,3-benzodiazole-6-carboxylic acid]"
3,< 6.30,"O=C(O)c1ccc2nc(CN3CCN(C(=O)c4cccc(Oc5cc(Cl)ccc5F)c4)CC3)n(C[C@@H]3CCO3)c2c1 [Compound 12, 2-({4-[3-(5-chloro-2-fluorophenoxy)benzoyl]piperazin-1-yl}methyl)-1-{[(2S)-oxetan-2-yl]methyl}-1H-1,3-benzodiazole-6-carboxylic acid]"
4,> 7.30,O=C(O)c1ccc2nc(CN3CCC(Oc4ccnc(COc5ccc(Cl)cc5F)c4)CC3)n(CC3(O)CC3)c2c1 [Compound 345]
5,> 7.30,"N#Cc1ccc(OCc2cccc(OC3CCN(Cc4nc5c(F)cc(C(=O)O)cc5n4CC4(CF)CC4)CC3)c2)c(F)c1 [Example 300, 2-((4-(3-((4-Cyano-2-fluorophenoxy)methyl)phenoxy)piperidin-1-yl)methyl)-4-fluoro-1-((1-(fluoromethyl)cyclopropyl)methyl)-1H-benzo[d]imidazole-6-carboxylic acid]"
6,> 7.30,"Cc1ccc(N(C)c2cccc(C(=O)N3CCN(Cc4nc5ccc(C(=O)O)cc5n4C[C@@H]4CCO4)CC3)c2)c(C)c1 [Compound 45, 2-[(4-{3-[(2,4-dimethylphenyl)(methyl)amino]benzoyl}piperazin-1-yl)methyl]-1-{[(2S)-oxetan-2-yl]methyl}-1H-1,3-benzodiazole-6-carboxylic acid]"
7,< 6.30,"N#Cc1ccc(COc2cccc(C3CCN(C(=O)c4ccc(-c5nnn[nH]5)cn4)CC3)n2)c(F)c1 [Compound 82, 3-fluoro-4-{[(6-{1-[5-(1H-1,2,3,4-tetrazol-5-yl)pyridine-2-carbonyl]piperidin-4-yl}pyridin-2-yl)oxy]methyl}benzonitrile]"
8,< 6.30,"O=C(O)c1ccc2nc(CN3CCN(Cc4ccc(OCc5ccc(Cl)cc5Cl)o4)CC3)n(C[C@@H]3CCO3)c2c1 [Example 74, (S)-2-((4-((5-((2,4-Dichlorobenzyl)oxy)furan-2-yl)methyl)piperazin-1-yl)methyl)-1-(oxetan-2-ylmethyl)-1H-benzo[d]imidazole-6-carboxylic acid]"
9,> 7.30,"O=C(O)c1ccc2nc(CN3CCC(Oc4ccnc(COc5ccc(Cl)cc5Cl)c4)CC3)n(CC3CNC3)c2c1 [Compound 280, 1-[(azetidin-3-yl)methyl]-2-{[4-({2-[(2,4-dichlorophenoxy)methyl]pyridin-4-yl}oxy)piperidin-1-yl]methyl}-1H-1,3-benzodiazole-6-carboxylic acid]"
10,> 7.30,"O=C(O)c1ccc2nc(CN3CCC(Oc4ccnc(COc5ccc(F)cc5F)n4)CC3)n(C[C@@H]3CCO3)c2c1 [Compound 479, 2-{[4-({2-[(2,4-difluorophenoxy)methyl]pyrimidin-4-yl}oxy)piperidin-1-yl]methyl}-1-{[(2S)-oxetan-2-yl]methyl}-1H-1,3-benzodiazole-6-carboxylic acid]"
11,< 6.30,"Cc1cccc(Oc2ccc(C(=O)N3CCN(Cc4nc5ccc(C(=O)O)cc5n4C[C@@H]4CCO4)CC3)cc2)c1 [Compound 21, 2-({4-[4-(3-methylphenoxy)benzoyl]piperazin-1-yl}methyl)-1-{[(2S)-oxetan-2-yl]methyl}-1H-1,3-benzodiazole-6-carboxylic acid]"

# Further lines, the compound ahead of its results:
row,Structure (SMILES),pEC50
1,C[C@H]1C[C@@H](Oc2cccc(COc3ccc(C#N)cc3F)c2)CCN1Cc1nc2c(F)cc(C(=O)O)cc2n1C[C@@H]1CCO1 [Compound 320],> 7.30
2,"CCn1cncc1Cn1c(CN2CCC(Oc3cccc(COc4ccc(Cl)cc4Cl)c3)CC2)nc2ccc(C(=O)O)cc21 [Example 157, 2-((4-(3-((2,4-Dichlorophenoxy)methyl)phenoxy)piperidin-1-yl)methyl)-1-((1-ethyl-1H-imidazol-5-yl)methyl)-1H-benzo[d]imidazole-6-carboxylic acid]",> 7.30
3,"CC(Oc1ccc(C#N)cc1F)c1nccc(OC2CCN(Cc3nc4ccc(C(=O)O)cc4n3C[C@@H]3CCO3)CC2)n1 (mixture of isomers) [Example 480, 2-((4-((2-(1-(4-Cyano-2-fluorophenoxy)ethyl)pyrimidin-4-yl)oxy)piperidin-1-yl)methyl)-1-(((S)-oxetan-2-yl)methyl)-1H-benzo[d]imidazole-6-carboxylic acid]",6.30 to 7.30
4,"CCn1cncc1Cn1c(CN2CCN(C(=O)c3cccc(N(C)c4ccc(C)cc4Cl)c3)CC2)nc2ccc(C(=O)O)cc21 [Compound 54, 2-[(4-{3-[(2-chloro-4-methylphenyl)(methyl)amino]benzoyl}piperazin-1-yl)methyl]-1-[(1-ethyl-1H-imidazol-5-yl)methyl]-1H-1,3-benzodiazole-6-carboxylic acid]",6.30 to 7.30
5,"CCn1cncc1Cn1c(CN2CCN(C(=O)c3ccc(COc4ccc(Cl)cc4Cl)o3)CC2)nc2ccc(C(=O)O)cc21 [Compound 47, 2-[(4-{5-[(2,4-dichlorophenoxy)methyl]furan-2-carbonyl}piperazin-1-yl)methyl]-1-[(1-ethyl-1H-imidazol-5-yl)methyl]-1H-1,3-benzodiazole-6-carboxylic acid]",> 7.30
6,"O=C(O)c1ccc2nc(CN3CCN(C(=O)c4ccc(COc5ccc(Cl)cc5Cl)o4)CC3)n(C[C@@H]3CCO3)c2c1 [Compound 26, 2-[(4-{5-[(2,4-dichlorophenoxy)methyl]furan-2-carbonyl}piperazin-1-yl)methyl]-1-{[(2S)-oxetan-2-yl]methyl}-1H-1,3-benzodiazole-6-carboxylic acid]",6.30 to 7.30
7,O=C(O)c1ccc2nc(CN3CCC(Oc4ccnc(COc5ccc(Cl)cc5)c4)CC3)n(C[C@@H]3CCO3)c2c1 [Compound 352],> 7.30
8,"CCn1cncc1Cn1c(CN2CCC(Oc3ccnc(COc4ccc(Cl)cc4F)c3)CC2)nc2ccc(C(=O)O)cc21 [Example 230, 2-((4-((2-((4-Chloro-2-fluorophenoxy)methyl)pyridin-4-yl)oxy)piperidin-1-yl)methyl)-1-((1-ethyl-1H-imidazol-5-yl)methyl)-1H-benzo[d]imidazole-6-carboxylic acid]",> 7.30
9,"CCn1cncc1Cn1c(CN2CCC(C)(Cc3ccnc(COc4ccc(Cl)cc4Cl)c3)CC2)nc2ccc(C(=O)O)cc21 [Example 163, 2-((4-((2-((2,4-Dichlorophenoxy)methyl)pyridin-4-yl)methyl)-4-methylpiperidin-1-yl)methyl)-1-((1-ethyl-1H-imidazol-5-yl)methyl)-1H-benzo[d]imidazole-6-carboxylic acid]",> 7.30
10,"O=C(O)c1ccc2nc(CN3CCN(C(=O)c4ccc(COc5ccccc5Cl)o4)CC3)n(C[C@@H]3CCO3)c2c1 [Compound 39, 2-[(4-{5-[(2-chlorophenoxy)methyl]furan-2-carbonyl}piperazin-1-yl)methyl]-1-{[(2S)-oxetan-2-yl]methyl}-1H-1,3-benzodiazole-6-carboxylic acid]",< 6.30
11,"Cc1ccc(C(C)c2cccc(C(=O)N3CCN(Cc4nc5ccc(C(=O)O)cc5n4C[C@@H]4CCO4)CC3)c2)c(Cl)c1 (stereo partly drawn) [Example 112, 2-((4-(3-(1-(2-Chloro-4-methylphenyl)ethyl)benzoyl)piperazin-1-yl)methyl)-1-(((S)-oxetan-2-yl)methyl)-1H-benzo[d]imidazole-6-carboxylic acid]",6.30 to 7.30
12,"N#Cc1ccc(OCc2ccc(C(=O)N3CCN(Cc4nc5ccc(C(=O)O)cc5n4C[C@@H]4CCO4)CC3)o2)c(F)c1 [Compound 37, 2-[(4-{5-[(4-cyano-2-fluorophenoxy)methyl]furan-2-carbonyl}piperazin-1-yl)methyl]-1-{[(2S)-oxetan-2-yl]methyl}-1H-1,3-benzodiazole-6-carboxylic acid]",< 6.30
13,"N#Cc1ccc(OCc2cccc(C(=O)N3CCN(Cc4nc5ccc(C(=O)O)cc5n4C[C@@H]4CCO4)CC3)c2)c(F)c1 [Compound 68, 2-[(4-{3-[(4-cyano-2-fluorophenoxy)methyl]benzoyl}piperazin-1-yl)methyl]-1-{[(2S)-oxetan-2-yl]methyl}-1H-1,3-benzodiazole-6-carboxylic acid]",< 6.30
14,"O=C(O)c1ccc2nc(CN3CCC(Oc4cccc(COc5ccc(Cl)cc5Cl)c4)CC3)n(Cc3ccno3)c2c1 [Example 208, 2-((4-(3-((2,4-Dichlorophenoxy)methyl)phenoxy)piperidin-1-yl)methyl)-1-(isoxazol-5-ylmethyl)-1H-benzo[d]imidazole-6-carboxylic acid]",> 7.30
15,"O=C(O)c1ccc2nc(CN3CCC(Oc4cc(COc5ccc(Cl)cc5F)ncc4F)CC3)n(C[C@@H]3CCO3)c2c1 [Compound 380, (S)-2-((4-((2-((4-chloro-2-fluorophenoxy)methyl)-5-fluoropyridin-4-yl)oxy)piperidin-1-yl)methyl)-1-(oxetan-2-ylmethyl)-1H-benzo[d]imidazole-6-carboxylic acid]",> 7.30
16,"O=C(O)c1cc(F)c2nc(CN3CCC(Oc4ccnc(COc5cc(F)c(F)cc5F)n4)CC3)n(C[C@@H]3CCO3)c2c1 [Compound 494, 4-fluoro-1-{[(2S)-oxetan-2-yl]methyl}-2-{[4-({2-[(2,4,5-trifluorophenoxy)methyl]pyrimidin-4-yl}oxy)piperidin-1-yl]methyl}-1H-1,3-benzodiazole-6-carboxylic acid]",> 7.30
17,"CCn1cncc1Cn1c(CN2CCN(C(=O)c3cccc(Oc4ccc(C)cc4Cl)c3)CC2)nc2ccc(C(=O)O)cc21 [Example 57, 2-((4-(3-(2-Chloro-4-methylphenoxy)benzoyl)piperazin-1-yl)methyl)-1-((1-ethyl-1H-imidazol-5-yl)methyl)-1H-benzo[d]imidazole-6-carboxylic acid]",6.30 to 7.30

# — patent US20230089073A1 (Carmot Therapeutics, Inc., priority 2021, published 2023)
